These results are taken from patent US9828375B2, “4-position substituted pyrazolopyrimidine derivative, and use thereof in drug preparation” (Guangxi Wuzhou Pharmaceuticals (Group) Co., Ltd., priority 2012, dated 2017).

For data set [1], the system named is human malignant melanoma cell line WM2664.
Method: The purpose of the experiment was to test the in vivo anti-tumor effect of the compound of the invention. […] The cell line used was human malignant melanoma cell line WM2664. The drug (sorafenib) undergoing anti-melanoma clinical trial was used as the positive control.
BALB/C nude mice at age of 6 to 8 weeks were used, and WM2664 cells were inoculated at the subcutaneous posterior ribs of the mice at a concentration of 5×106/0.1 mL/mouse; after the tumors grew to 200-300 mm^3 (for about 15 days), mice (n=6) were grouped and subject to oral intragastric administration.
Observation targets: Mouse weight and long and short diameters of tumor were measured every 3 days, and tumor volume (length×width^2×0.52) was calculated to observe for diarrhea, convulsion, rash, significant weight loss and other reactions.
In data set [2] the test system is human colorectal carcinoma cell line HT29. The data set can be described thus: In vivo anti-tumor experiment, nude mouse-subcutaneous human colorectal carcinoma HT29 model. More on the design: species or system BALB/C nude mice. From the text:
(§1) The cell lines used were human colorectal carcinoma cell line HT29 and human glioma cell line U251.

Data set [3] relates to human glioma cell line U251. The data set can be described thus: In vivo anti-tumor experiment, nude mouse-subcutaneous human glioma U251 model. On the set-up: species or system BALB/C nude mice.
Source text: as §1

[4] abbreviates: daily dose of 30 mg/kg or above, oral.
[5] abbreviates: nude mice, 15-60 mg/kg q.d. oral.

Take `O=C(Nc1ccc(Oc2ncnc3[nH]ncc23)cc1)Nc1ccc(Cl)c(C(F)(F)F)c1` [4a-2]: the “effect compared with sorafenib” value in data set [1] (4a-2 25 mg/kg/d vs sorafenib at daily dose of 50 mg/kg) is recorded as “more effective than sorafenib”. Further, the “in vivo tumor growth inhibition effect” value in data set [1] (dose of 25 mg/kg/d, oral, WM2664 (BRAF V600D) model) is “obviously inhibit tumor growth”.

As to `O=C(Nc1ccc(Oc2ncnc3[nH]ncc23)cc1)Nc1cccc(C(F)(F)F)c1` [4a-6], the “in vivo tumor growth inhibition effect” value in data set [2] (setting [4]) and in data set [3] (setting [4]) was “obviously inhibit tumor growth” in each case. Besides, the “weight loss, rash, diarrhea and other adverse reactions during administration” value in data set [2] (setting [5]) and in data set [3] (setting [5]) was “not found” in each case.
